In patent US20130165520A1, “Hybrid Molecule Having Mixed Retinoic Acid Receptor Agonism and Histone Deacetylase Inhibitory Properties” (priority 2010, published 2013):

Experiments:
UO-31 = UO-31 (Renal); 48 h
SK-OV-3 = conditions: 48 h
CAKI-1 = test: cells; conditions: Homo sapiens, CAKI-1, 48 h
purified human HDAC6 = purified human HDAC6 (Homo sapiens, UniProt Q9UBN7); test: Standard fluorescence HDAC assay; type: biochemical; conditions: purified human enzyme, read-out: IC50 against HDAC6
COLO205 = COLO205 (Colon); 48 h
DU-145 = DU-145 (Prostate); 48 h
SNB-19 [1] = conditions: SNB-19 (CNS); 48 h
K-562 = test: cells; conditions: Homo sapiens, K562, 48 h
SF-268 = test: cells; conditions: Homo sapiens, SF-268, 48 h
SNB-19 [2] = test: cells; conditions: Homo sapiens, SNB-19, 48 h
UACC-62 = test: cells; conditions: Homo sapiens, UACC-62, 48 h
KM12 = test: cells; conditions: Homo sapiens, KM12, 48 h
SK-MEL-5 = SK-MEL-5 (Melanoma); 48 h
OVCAR-5 = conditions: 48 h
[3] = system: NCI-60 panel of human tumor cell lines; test: NCI-60 in vitro cancer screen (SRB), whole panel; type: cell-based; conditions: all cell lines, read-out: GC-50 values, range over all cell lines
Protocol: Both RARs and HDACs are ubiquitously expressed in cell lines and tissue. It was therefore surmised that hybrid 3 could display cytotoxic activities in a wide variety of cell lines.
The human tumor cell lines of the cancer screening panel are grown in RPMI 1640 medium containing 5% fetal bovine serum and 2 mM L-glutamine. For a typical screening experiment, cells are inoculated into 96 well microtiter plates in 100 μL at plating densities ranging from 5,000 to 40,000 cells/well depending on the doubling time of individual cell lines. After cell inoculation, the microtiter plates are incubated at 37° C., 5% CO2, 95% air and 100% relative humidity for 24 h prior to addition of experimental drugs. […]
Following drug addition, the plates are incubated for an additional 48 h at 37° C., 5% CO2, 95% air, and 100% relative humidity. […] Bound stain is subsequently solubilized with 10 mM trizma base, and the absorbance is read on an automated plate reader at a wavelength of 515 nm. […] Using the absorbance measurements [time zero, (Tz), control growth, (C), and test growth in the presence of drug at the five concentration levels (Ti)], the percentage growth is calculated at each of the drug concentration levels. Percentage growth inhibition is calculated as: [(Ti-Tz)/(C-Tz)]×100 for concentrations for which Ti>/=Tz; and [(Ti-Tz)/Tz]×100 for concentrations for which Ti<Tz. […]

NCI-H522 = NCI-H522 (Non-Small cell lung cancer); 48 h
SNB-75 = test: cells; conditions: Homo sapiens, SNB-75, 48 h
BT-549 = test: cells; conditions: Homo sapiens, BT-549, 48 h
HS578T = test: cells; conditions: Homo sapiens, Hs-578T, 48 h

Chain of purified human HDAC6 (Q9UBN7 whole entry): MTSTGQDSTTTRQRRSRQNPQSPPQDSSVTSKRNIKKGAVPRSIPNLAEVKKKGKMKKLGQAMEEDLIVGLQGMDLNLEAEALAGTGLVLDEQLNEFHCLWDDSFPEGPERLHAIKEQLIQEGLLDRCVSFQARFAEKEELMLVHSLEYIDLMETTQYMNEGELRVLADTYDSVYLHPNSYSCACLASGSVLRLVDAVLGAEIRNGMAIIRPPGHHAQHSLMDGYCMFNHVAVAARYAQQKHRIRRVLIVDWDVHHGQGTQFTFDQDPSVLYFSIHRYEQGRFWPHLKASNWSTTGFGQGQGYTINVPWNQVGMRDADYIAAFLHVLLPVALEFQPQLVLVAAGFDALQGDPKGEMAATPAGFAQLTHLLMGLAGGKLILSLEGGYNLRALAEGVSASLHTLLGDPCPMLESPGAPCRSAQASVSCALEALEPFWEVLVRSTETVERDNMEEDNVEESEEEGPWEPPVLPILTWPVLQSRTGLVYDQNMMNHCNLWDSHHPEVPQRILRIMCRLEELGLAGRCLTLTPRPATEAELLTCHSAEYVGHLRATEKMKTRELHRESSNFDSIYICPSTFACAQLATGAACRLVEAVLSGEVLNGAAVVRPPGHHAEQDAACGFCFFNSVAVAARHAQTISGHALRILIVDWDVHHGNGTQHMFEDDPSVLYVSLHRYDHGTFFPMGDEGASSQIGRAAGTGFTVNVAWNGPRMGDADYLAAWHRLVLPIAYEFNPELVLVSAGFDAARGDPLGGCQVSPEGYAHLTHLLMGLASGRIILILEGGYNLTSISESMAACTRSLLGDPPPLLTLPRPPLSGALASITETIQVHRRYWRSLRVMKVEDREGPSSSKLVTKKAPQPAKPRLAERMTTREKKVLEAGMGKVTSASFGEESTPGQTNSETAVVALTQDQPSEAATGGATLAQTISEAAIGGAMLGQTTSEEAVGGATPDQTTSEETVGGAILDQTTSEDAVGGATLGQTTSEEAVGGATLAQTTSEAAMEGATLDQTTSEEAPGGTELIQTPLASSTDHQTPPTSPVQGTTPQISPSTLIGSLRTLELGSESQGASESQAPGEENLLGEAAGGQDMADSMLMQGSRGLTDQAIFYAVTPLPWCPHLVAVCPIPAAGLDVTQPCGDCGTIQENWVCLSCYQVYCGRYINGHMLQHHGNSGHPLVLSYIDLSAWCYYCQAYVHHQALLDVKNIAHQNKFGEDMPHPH

Structure (SMILES): CC1(C)CCC(C)(C)c2cc(-c3ccc4cc(C(=O)NO)ccc4c3)ccc21 [hybrid 3]
- TGI (UO-31): 1610 nM
- TGI (SK-OV-3): 11700 nM
- GI50 (CAKI-1): 302 nM
- CC50 (CAKI-1; read-out: LC50): 4310 nM
- IC50 (purified human HDAC6): 148 nM
- TGI (COLO205): 2330 nM
- TGI (DU-145): 1900 nM
- TGI (SNB-19 [1]): 2360 nM
- GI50 (K-562): 399 nM
- CC50 (K-562; read-out: LC50): 5510 nM
- GI50 (SF-268): 533 nM
- CC50 (SF-268; read-out: LC50): 5050 nM
- GI50 (SNB-19 [2]): 1090 nM
- CC50 (SNB-19 [2]; read-out: LC50): 5090 nM
- GI50 (UACC-62): 512 nM
- CC50 (UACC-62; read-out: LC50): 5170 nM
- GI50 (KM12): 616 nM
- CC50 (KM12; read-out: LC50): 4610 nM
- TGI (SK-MEL-5): 2310 nM
- TGI (OVCAR-5): 19500 nM
- IC50 [3]: 302 to 4300 nM
- TGI (NCI-H522): 3590 nM
- GI50 (SNB-75): 1740 nM
- CC50 (SNB-75; read-out: LC50): 24900 nM
- GI50 (BT-549): 1420 nM
- CC50 (BT-549; read-out: LC50): 19700 nM
- GI50 (HS578T): 3020 nM
- CC50 (HS578T; read-out: LC50): 64800 nM
